According to patent publication US20230285405A1, “Pharmaceuticals for Treating or Preventing Nidoviruses and Picornaviruses” (priority 2020, published 2023):
Structures can show the parent of a compound that is named as a salt. Where two headings read alike, the source gives them in different places.

Tests used:
[1] = tested on: OC43; assay: Dose-response analysis of OC43 infection; format: cell-based, human beta coronavirus OC43
Experimental: Dose-response analysis of OC43 infection was done similarly to the drug screening, except cells were seeded at a concentration of 5,000 cells per well and the media contained 2% BCS instead of 10% BCS. OC43 staining was performed 2 days after infection and analyzed similarly to what was described for the drug screening. A sigmoid fit was used to extract EC50 values using Matlab.

[2] = tested on: A549-mRuby cells; assay: Drug screening: effect on cell growth (cell number day 4 / day 0); conditions: 10 μM drug; for Growth_1: number of cells at day 4 divided by number of cells at day 0 / toxic_1: repeat #1; for Growth_2: number of cells at day 4 divided by number of cells at day 0 / toxic_2: repeat #2
Procedure, shortened: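 Growth was scored as day 4/day 0 cell count from images of OC43-infected (MOI 0.3) A549-mRuby nuclear-reporter cells. Compounds were added at 10 μM final after a 1 h infection at 33° C, followed by 4 days of culture at 33° C in two independent screens.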

[3] = tested on: SARS-CoV-2; assay: microbe, parasite or virus in culture; format: cell-based, SARS-CoV-2 (nCoV/Washington/1/2020); conditions: read-out: EC50 SARS2
[4] = tested on: OC43; assay: Drug screening: OC43 nucleoprotein staining in infected A549-mRuby cells; format: cell-based, human beta coronavirus OC43
Procedure, shortened: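 Repurposing screen: drugs at 10 μM final added 1 h after OC43 infection (MOI 0.3) of H2B-mRuby A549 cells, 4-day incubation at 33° C. Cell counts imaged at day 0 and day 4; nucleoprotein staining per cell normalized to untreated infected wells, hit threshold >3 SD in duplicate screens, non-toxic.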

[5] = Betacoronavirus 1, OC43, 48 h, read-out: EC50 OC43, A549-mRuby cells, staining 2 days after infection
[6] = Severe acute respiratory syndrome coronavirus 2
[7] = Betacoronavirus 1, OC43, 96 h, 10 μM drug, MOI 0.3, 4 days, OC43 staining normalized to no-drug controls, mean of the two screen repeats, read-out: OC43_mean
[8] = Betacoronavirus 1, OC43, 96 h, 10 μM drug, MOI 0.3, 4 days, normalized to no-drug controls in the same plate, repeat #1, read-out: OC43_1: % staining of OC43 in screen repeat #1
[9] = Betacoronavirus 1, OC43, 96 h, 10 μM drug, MOI 0.3, 4 days, normalized to no-drug controls in the same plate, repeat #2, read-out: OC43_2: % staining of OC43 in screen repeat #2
[10] = A549-mRuby cells, staining 2 days after infection, read-out: EC50 OC43
[11] = 10 μM drug, MOI 0.3, 4 days, OC43 staining normalized to no-drug controls, mean of the two screen repeats
[12] = 10 μM drug, MOI 0.3, 4 days, normalized to no-drug controls in the same plate, repeat #1
[13] = 10 μM drug, MOI 0.3, 4 days, normalized to no-drug controls in the same plate, repeat #2
[14] = Betacoronavirus 1, OC43, 96 h, read-out: OC43_mean, 10 μM drug, MOI 0.3, 4 days, OC43 staining normalized to no-drug controls, mean of the two screen repeats
[15] = Betacoronavirus 1, 96 h, 10 μM drug, MOI 0.3, 4 days, OC43 staining normalized to no-drug controls, mean of the two screen repeats, read-out: OC43_mean

Compound	Growth_1: number of cells at day 4 divided by number of cells at day 0 [2]	toxic_1 [2]	Growth_2: number of cells at day 4 divided by number of cells at day 0 [2]	toxic_2 [2]	hit_1 ([4]; 10 μM drug, repeat #1)	hit_2 ([4]; 10 μM drug, repeat #2)	activity at 10 µM [4, 7] [%]	activity at 10 µM [4, 8] [%]	activity at 10 µM [4, 9] [%]	further results
O.O=C(c1ccc(OCCN2CCCCC2)cc1)c1c(-c2ccc(O)cc2)sc2cc(O)ccc12 [Raloxifene HCl]	5.0	0	5.2	0	1	1	11.7	9.4	14	EC50 [1, 5]: 2700 nM; EC50 [3, 6]: 3800 nM
COc1cc2c(Oc3ccc4[nH]c(C)cc4c3F)ncnc2cc1OCCCN1CCCC1 [Cediranib (AZD2171), Cediranib]	2.6	0	2.4	0	1	1	19	17.8	20.2	EC50 [1, 5]: 520 nM; EC50 ([1]; read-out: EC50 OC43, A549-mRuby cells, staining 2 days after infection): 500 nM; EC50 [3, 6]: 3600 nM
OCCN1CCN(CC/C=C2/c3ccccc3Sc3ccc(C(F)(F)F)cc32)CC1 [Flupenthixol dihydrochloride]	–	–	–	–	–	–	–	–	–	EC50 ([1]; read-out: EC50 OC43): 1800 nM; EC50 [3]: 560 nM
Erythromycin Cyclocarbonate	5.7	0	6.0	0	1	1	–	–	–	EC50 [1, 10]: > 10000 nM; OC43_mean [4, 11]: 18.9%; OC43_1: % staining of OC43 in screen repeat #1 [4, 12]: 16.7%; OC43_2: % staining of OC43 in screen repeat #2 [4, 13]: 21.1%
Cc1ccc(O)c([C@H](CCN(C(C)C)C(C)C)c2ccccc2)c1.O=C(O)C(O)C(O)C(=O)O [Tolterodine tartrate]	5.0	0	5.1	0	1	1	16.6	21.7	11.6	EC50 [1, 5]: 7000 nM
CN(C)CCCN1c2ccccc2CCc2ccccc21.O [Imipramine HCl]	4.0	0	4.2	0	1	1	–	6.7	22.3	EC50 [1, 5]: 6000 nM; activity at 10 µM [4, 14]: 14.5%
CCC(CC)COC(=O)[C@H](C)N[P@](=O)(OC[C@H]1O[C@@](C#N)(c2ccc3c(N)ncnn23)[C@H](O)[C@@H]1O)Oc1ccccc1 [Remdesivir]	–	–	–	–	–	–	–	–	–	EC50 [1, 10]: 960 nM; EC50 ([1]; Betacoronavirus 1, OC43, 48 h, A549-mRuby cells, staining 2 days after infection, read-out: EC50 OC43): 900 nM; EC50 [3, 6]: 100 nM
CC(CN(C)C)CN1c2ccccc2CCc2ccccc21 (stereo not drawn) [Trimipramine maleate]	–	–	–	–	–	–	–	–	–	EC50 [1, 5]: 3800 nM; EC50 [3, 6]: 1500 nM
CCCCc1oc2ccccc2c1C(=O)c1cc(I)c(OCCN(CC)CC)c(I)c1 [Amiodarone HCl]	4.6	–	5.4	–	1	1	22.8	18.8	26.9	–
CCCc1cc(=O)[nH]c(=S)[nH]1 [Propylthiouracil]	3.7	0	4.2	0	1	1	–	44.3	55.1	activity at 10 µM [4, 14]: 49.7%
Ibutilide Fumarate	4.8	0	4.8	0	1	1	–	–	–	OC43_mean [4, 11]: 54.4%; OC43_1: % staining of OC43 in screen repeat #1 [4, 12]: 45.9%; OC43_2: % staining of OC43 in screen repeat #2 [4, 13]: 63.0%
CCN(CCO)CCCC(C)Nc1ccnc2cc(Cl)ccc12 (stereo not drawn) [Hydroxychloroquine Sulfate]	5.1	0	4.9	0	1	1	16.2	17.8	14.6	–
COc1cc2ncnc(Nc3ccc(F)c(Cl)c3)c2cc1OCCCN1CCOCC1 [Gefitinib (ZD1839), Gefitinib]	3.4	–	3.7	–	–	–	–	–	–	OC43_mean [4, 11]: 35.5%; OC43_1: % staining of OC43 in screen repeat #1 [4, 12]: 39.7%; OC43_2: % staining of OC43 in screen repeat #2 [4, 13]: 31.3%
C=C[C@]1(C)C[C@@H](OC(=O)CSC(C)(C)CNC(=O)[C@H](N)C(C)C)[C@]2(C)[C@H](C)CC[C@]3(CCC(=O)[C@H]32)[C@@H](C)[C@@H]1O [Valnemulin HCl]	4.4	0	4.5	0	1	1	–	27.7	37.1	activity at 10 µM [4, 15]: 32.4%
CCCCCCCC(=O)N[C@H](CN1CCCC1)[C@H](O)c1ccc2c(c1)OCCO2 [Eliglustat]	5.5	0	4.8	0	1	1	–	22.7	20.4	activity at 10 µM [4, 15]: 21.5%
Prochlorperazine dimaleate salt	3.1	0	3.1	0	1	1	–	–	–	OC43_mean [4, 11]: 40.2%; OC43_1: % staining of OC43 in screen repeat #1 [4, 12]: 47.2%; OC43_2: % staining of OC43 in screen repeat #2 [4, 13]: 33.1%
O=C(O[C@H]1CN2CCC1CC2)N1CCc2ccccc2[C@@H]1c1ccccc1 [Solifenacin]	4.3	0	3.4	0	1	1	25	20.4	29.6	–
COc1cc2nc(N3CCN(C(=O)C4COc5ccccc5O4)CC3)nc(N)c2cc1OC (stereo not drawn) [Doxazosin Mesylate]	5.2	0	4.9	0	1	1	29.7	50.1	9.2	–
OCCN1CCN(CCCN2c3ccccc3Sc3ccc(Cl)cc32)CC1 [Perphenazine]	2.2	0	2.5	0	1	1	42.8	59.8	25.8	–
